From paper PMC9303235 (2022)

What was measured:
[1] = test system: QD3-sbl (DNA, G4) TTAGGTGGGTAGGGTGGGCTAGTCATTTTGACTAGG; assay: NMR solution structure; settings: K+ (10 mM potassium phosphate); pH 7.0, 30 °C; about 2% DMSO-d6; intercalation at quadruplex-duplex junction
[2] = test system: QD3-sbl (DNA, G4) TTAGGTGGGTAGGGTGGGCTAGTCATTTTGACTAGG; assay: ITC; settings: 120 mM K+; 20 mM potassium phosphate, 100 mM KCl, pH 7.0, 5% DMSO, 40 °C; high-affinity site, two-site fit
[3] = test system: QD2-l (DNA, G4) GGTTGGCGCGAAGCATTCGCGGGTTGG; assay: NMR titration (imino protons, ROESY exchange); settings: K+ (10 mM potassium phosphate), pH 7.0, 20 °C, 0.5 mM DNA, slow exchange, intercalation at junction

| Structure (SMILES) | binding [1] | Ka [2] | binding [3] |
| --- | --- | --- | --- |
| CN(C)CCCNc1c2ccccc2nc2c1[nH]c1ccccc12 | yes | (1.1±0.3) ⋅ 10^7 M^-1 | yes |
| C[n+]1c2ccccc2cc2[nH]c3ccccc3c21 |  | (3.3±0.7) ⋅ 10^6 M^-1 |  |
